In brackets after ≈: the same amount, converted by molar mass. Like-named read-outs stand apart in the source and are kept apart here.
Tests used:
[1] = test system: KB cells (human nasopharyngeal cells); experiment: In vitro antineoplastic test on KB cells (MTT, 3 days); type: cell-based; settings: 72 h, KB cells in vitro, 37° C. for three days, MTT, read-out: IC50
Description: In vitro antineoplastic test on KB cells (human nasopharyngeal cells):
1.25×10^3 (0.1 ml) of KB cells suspended in a RPMI 1640 medium (a product of Nissui Seiyaku Co., Ltd.) containing 20% of bovine fetus serum, penicillin (100 units/ml), streptomycin (100 μg/ml), mercaptoethanol (5×10^-5 M) and sodium pyruvate (1 mM) were placed in each hole of a 96-hole flat-bottom microplate and cultured in an incubator containing 5% of carbon dioxide at 37° C. for one day.
This concentration was the maximum one, which was subjected to two-fold serial dilution with 0.1% bovine fetus serum RPMI 1640 culture liquid containing 0.5% of dimethyl sulfoxide. It was added to the KB cells in each hole of the above-described culture plate in an amount of 0.1 ml and cultured in an incubator containing 5% of carbon dioxide at 37° C. for three days.
After the completion of the culture, 0.05 ml of MTT [3-(4,5-dimethylthiazol-2-yl)-2,5-diphenyltetrazolium bromide] solution (3.3 mg/ml) was added to each hole and the culture was conducted for an additional 1 h. The supernatant liquid was removed from each hole by suction and a formazan thus formed was dissolved in 0.1 ml of dimethyl sulfoxide. The absorbance at 540 nm was determined with a microplate reader to use as an index of a viable count. A percentage inhibition was calculated according to the following formula and the concentration of the test compound for 50% inhibition (IC50) was determined.
Percentage inhibition (%)=(C-T)/C×100
T: absorbance of the hole containing the test compound
C: absorbance of the hole containing no test compound

[2] = test system: colon 38 (cancer of the colon of mice); type: in vivo, mice (BDF1, female); settings: once a day for 8 days, 21 days after transplantation
Description: In vivo antineoplastic test on colon 38 (cancer of the colon of mice):
About 75 mg of colon 38 was subcutaneously transplanted in the side of the body of each of 7-week old female BDF1 mice. A compound of the present invention was suspended in 0.5% methylcellulose and oral administration of a predetermined amount of the suspension once a day was started on the next day and continued for 8 days. 0.5% methylcellulose was orally given to a control group. The control group consisted of 10 mice and the group to which the medicine was given consisted of 6 mice.
21 days after the transplantation, the tumors were taken out and weighed. The tumor growth inhibition ratio of the group to which the medicine was given to the control group was determined according to the following formula:
Growth inhibition ratio (%) (C-T)/C×100
T: average weight of tumor in the group to which the test compound was given
C: average weight of tumor in the control group

BDF1 mice = test system: BDF1 mice; parameters: species or system female); settings: mouse, in vivo, 1651 mg/kg
Description: EXPERIMENTAL EXAMPLE 3: Toxicity tests
No mouse died, even with 1651 mg/kg of the compound.

IC50 [1]	SMILES	Growth inhibition ratio ([2]; 100 mg/kg/day oral)	viability observed for 7 days after the administration (BDF1 mice)	Growth inhibition ratio ([2]; 50 mg/kg/day oral)
1.5 mg/L (≈ 4.42 µM)	Cc1ccc(S(=O)(=O)Nc2cccnc2Nc2ccccc2)cc1 [Example 1, N-(2-Anilino-3-pyridyl)-p-toluenesulfonamide]	80%	–	–
0.01 mg/L (≈ 0.0261 µM)	COc1ccc(S(=O)(=O)Nc2ccccc2NC(=O)c2ccncc2)cc1 [Example 88, N-[2-(4-Methoxybenzenesulfonamido)phenyl]isonicotinamide]	–	–	–
0.064 mg/L (≈ 0.147 µM)	COc1ccc(S(=O)(=O)Nc2ccccc2NC(=O)c2ccc(F)cc2Cl)cc1 [Example 94, 2-Chloro-4-fluoro-N-[2-(4-methoxybenzenesulfonamido)phenyl]benzamide]	–	–	–
0.15 mg/L (≈ 0.36 µM)	COc1ccc(S(=O)(=O)Nc2ccccc2NC(=S)c2ccc(F)cc2)cc1 [Example 97, 4-Fluoro-N-[2-(4-methoxybenzenesulfonamido)phenyl]benzothioamide]	–	–	–
0.079 mg/L (≈ 0.197 µM)	COc1ccc(S(=O)(=O)Nc2ccc(F)cc2NC(=O)c2ccccc2)cc1 [Example 98, N-[5-fluoro-2-(4-methoxybenzenesulfonamido)phenyl]benzamide]	–	–	–
0.099 mg/L (≈ 0.283 µM)	CCNC(=O)Nc1ccccc1NS(=O)(=O)c1ccc(OC)cc1 [Example 104, N-[2-[(Ethylaminocarbonyl)amino]phenyl]-4-methoxybenzenesulfonamide]	–	–	–
0.3 mg/L (≈ 0.778 µM)	Nc1ccc(S(=O)(=O)Nc2ccccc2NC(=O)c2ccc(F)cc2)cc1 [Example 106, N-[2-(4-Aminobenzenesulfonamido)phenyl]-4-fluorobenzamide]	–	–	–

The next lines start with the molecule.

SMILES	IC50 [1]	Growth inhibition ratio ([2]; 100 mg/kg/day oral)	viability observed for 7 days after the administration (BDF1 mice)	Growth inhibition ratio ([2]; 50 mg/kg/day oral)
CCc1ccc(S(=O)(=O)Nc2cccnc2Nc2ccccc2)cc1 [Example 2, N-(2-Anilino-3-pyridyl)-4-ethylbenzenesulfonamide]	1.7 mg/L (≈ 4.81 µM)	69%	–	–
COc1ccc(S(=O)(=O)Nc2cccnc2Nc2ccccc2)cc1 [Example 3, N-(2-Anilino-3-pyridyl)-4-methoxybenzenesulfonamide]	0.27 mg/L (≈ 0.76 µM)	98%	No mouse died	–
COc1ccc(Nc2ncccc2NS(=O)(=O)c2ccc(OC)cc2)cc1 [Example 4, 4-Methoxy-N-[2-[(4-methoxyphenyl)amino]-3-pyridyl]benzenesulfonamide]	1.9 mg/L (≈ 4.93 µM)	99%	No mouse died	–
COc1ccc(S(=O)(=O)Nc2cccnc2Nc2ccc(O)cc2)cc1 [Example 6, N-[2-[(4-Hydroxyphenyl)amino]-3-pyridyl]-4-methoxybenzenesulfonamide]	0.42 mg/L (≈ 1.13 µM)	98%	No mouse died	–
COc1ccc(S(=O)(=O)Nc2cccnc2Nc2ccncc2)cc1 [Example 7, 4-Methoxy-N-[2-[(4-pyridyl)amino]-3-pyridyl]benzenesulfonamide]	1 mg/L (≈ 2.81 µM)	–	–	61%
COc1ccc(S(=O)(=O)Nc2ccccc2NC(=O)c2cccnc2C)cc1 [Example 70, N-[2-(4-Methoxybenzenesulfonamido)phenyl]-2-methylnicotinamide]	0.033 mg/L (≈ 0.083 µM)	–	–	63%
COc1ccc(S(=O)(=O)Nc2ccccc2NC(=O)c2ccc(F)cc2)cc1 [Example 82, 4-Fluoro-N-[2-(4-methoxybenzenesulfonamido)phenyl]benzamide]	0.026 mg/L (≈ 0.0649 µM)	–	–	–
COc1ccc(S(=O)(=O)Nc2ccccc2NC(=O)c2ccco2)cc1 [Example 85, N-[2-(4-Methoxybenzenesulfonamido)phenyl]-2-furancarboxamide]	0.01 mg/L (≈ 0.0269 µM)	–	–	–
COc1ccc(S(=O)(=O)Nc2cccc(C)c2NC(=O)c2ccncc2)cc1 [Example 91, N-[2-(4-Methoxybenzenesulfonamido)-6-methylphenyl]isonicotinamide]	0.079 mg/L (≈ 0.199 µM)	–	–	–
COc1ccc(S(=O)(=O)Nc2ccccc2NC(=O)c2ccccc2C)cc1 [Example 95, N-[2-(4-Methoxybenzenesulfonamido)phenyl]-2-methylbenzamide]	0.045 mg/L (≈ 0.114 µM)	–	–	–
COc1ccc(S(=O)(=O)Nc2ccccc2NC(C)=O)cc1 [Example 101, N-[2-(4-Methoxybenzenesulfonamido)phenyl]acetamide]	0.1 mg/L (≈ 0.312 µM)	–	–	–
